The values that follow come from US7687644B2, “Adamantyl pyrrolidin-2-one derivatives as 11-beta hydroxysteroid dehydrogenase inhibitors” (Janssen Pharmaceutica NV, priority 2004, dated 2010).

pIC50: −log10 of the molar value. A value given as a limit tells only on which side of the number the result lay.

The target in data set [1] is T1, 11β-HSD2 (Homo sapiens, UniProt P80365).
T1 sequence (P80365 1-405): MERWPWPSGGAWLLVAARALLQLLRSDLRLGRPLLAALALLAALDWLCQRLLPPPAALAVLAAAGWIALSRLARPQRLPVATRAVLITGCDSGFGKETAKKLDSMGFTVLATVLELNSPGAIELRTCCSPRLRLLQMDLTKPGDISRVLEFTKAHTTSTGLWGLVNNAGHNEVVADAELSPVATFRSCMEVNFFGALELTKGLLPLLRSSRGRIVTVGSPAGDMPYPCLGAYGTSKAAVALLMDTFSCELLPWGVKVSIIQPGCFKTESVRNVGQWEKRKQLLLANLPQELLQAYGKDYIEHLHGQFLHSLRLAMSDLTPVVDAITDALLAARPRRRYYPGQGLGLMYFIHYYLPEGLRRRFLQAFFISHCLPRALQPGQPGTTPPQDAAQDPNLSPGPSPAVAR
Put plainly: Cellular assay, 11β-HSD2 activity in HepG2 cells. It is filed as cell-based. The arrangement: endogenous in cells; host or cells: HepG2 (ATCC HB-8065). Particulars: 4 hour pre-incubation, read-out: [C2] HSD2 cellular HepG2 Score. As for the experimental part: The effects on 11β-HSD2 activity was studied in HepG2 and LCC-PK1-cells HepG2-cells (ATCC HB-8065) were seeded in 12 well plates at a density of 100,000′ cells/ml and grown at 37° C. in a humidified 5% CO2 atmosphere in MEM-Rega-3 medium supplemented with 10% heat inactivated foetal calf serum, 2 mM L-glutamine and sodium bicarbonate). Medium was refreshed twice a week.
Following a 4 hour pre-incubation with test compound, 0.5 μCi ^3H-cortisol or corticosterone, was added to the cultures. One hour later, the medium was extracted on Extrelut^3-columns with 15 ml diethyl ether and the extract was analysed by HPLC as described above.
As for the enzymatic assays, the compounds to be tested were taken from a stock is solution and tested at a final concentration ranging from −10^−5M to 3·10^−9M. From the thus obtained dose response curves, the pIC50 value was calculated and scored as follows; Score 1=pIC50 value<5, Score 2=pIC50 value in the range of 5 to 6, Score 3=pIC50 value>6. Some of the thus obtained results are summarized in the table below (in this table NT stands for Not Tested).

The target in data set [2] is T2, 11β-HSD1 (Mus musculus, UniProt P50172).
T2 construct: endogenous in cells; host or cells: 3T3-L1 (ATCC-CL-173), differentiated into adipocytes
T2 sequence (P50172 whole entry): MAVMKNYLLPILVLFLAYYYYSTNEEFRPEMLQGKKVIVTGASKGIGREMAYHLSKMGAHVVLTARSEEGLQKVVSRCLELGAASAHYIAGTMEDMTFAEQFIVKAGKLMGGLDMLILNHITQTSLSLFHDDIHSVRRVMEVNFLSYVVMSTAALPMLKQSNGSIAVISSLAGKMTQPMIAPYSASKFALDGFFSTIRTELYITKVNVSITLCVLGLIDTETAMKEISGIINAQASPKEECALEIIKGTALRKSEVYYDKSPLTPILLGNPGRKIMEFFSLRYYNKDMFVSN
Put plainly: Cellular assay, 11β-HSD1 activity in differentiated 3T3-L1 cells. It is filed as cell-based. Particulars: 4 hour pre-incubation, read-out: [C2] HSD1 cellular 3T3-L1 Score. As to the method: The effects on 11β-HSD1 activity was measured in differentiated 3T3-L1 cells and rat hepatocytes.
Medium was refreshed twice a week.
One hour later, the medium was extracted on Extrelut^3-columns with 15 ml diethyl ether and the extract was analysed by HPLC as described above.
As for the enzymatic assays, the compounds to be tested were taken from a stock is solution and tested at a final concentration ranging from −10^−5M to 3·10^−9M.

The target in data set [3] is 11β-HSD1 (Homo sapiens, UniProt P28845). Put plainly: Enzymatic assay, 11β-HSD1 reductase activity (conversion of cortisone into cortisol). It is filed as biochemical. Particulars: recombinant protein, 2 μM cortisone, 45 minutes at 37° C.; read-out: [C1] HSD1-prot Reduct Score. As to the method: The effects of compounds on 11β-HSD1 dependent conversion of cortisone into cortisol (reductase activity) was studied in a reaction mixture containing 30 mM Tris-HCl buffer pH 7.2, 180 μM NADPH, 1 mM EDTA, 2 μM cortisone, 1 μl drug and/or solvent and 11 μg recombinant protein in a final volume of 100 μl.
Chain of 11β-HSD1 (Homo sapiens, UniProt P28845) (P28845 whole entry, species assumed): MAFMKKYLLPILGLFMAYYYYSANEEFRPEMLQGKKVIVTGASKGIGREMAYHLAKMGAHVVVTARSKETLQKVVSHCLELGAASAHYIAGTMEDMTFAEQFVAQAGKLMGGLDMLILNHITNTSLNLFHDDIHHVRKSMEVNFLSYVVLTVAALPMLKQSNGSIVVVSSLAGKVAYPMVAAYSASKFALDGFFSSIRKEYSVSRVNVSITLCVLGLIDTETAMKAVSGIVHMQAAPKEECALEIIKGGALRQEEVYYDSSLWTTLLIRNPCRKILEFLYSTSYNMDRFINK
(§1) All incubations were performed for 45 minutes at 37° C. in a water bath. The reaction was stopped by adding 100 μl acetonitrile containing 20 μg corticosterone as internal standard. After centrifugation, the product formation was analysed in the supernatant by HPLC on a Hypersyl BDS-C18 column using 0.05 mM ammonium acetate/methanol (50/50) as solvent. In all of the aforementioned assays, the drugs to be tested were taken from a stock solution and tested at a final concentration ranging from −10^−5M to 3·10^−9M. From the thus obtained dose response curves, the pIC50 value was calculated and scored as follows; Score 1=pIC50 value<5, Score 2=pIC50 value in the range of 5 to 6, Score 3=pIC50 value>6. Some of the thus obtained results are summarized in the table below (in this table NT stands for Not Tested).

Data set [4] concerns the target T1, 11β-HSD2. Nature of the data set: Enzymatic assay, 11β-HSD2 dependent dehydrogenase activity. It is filed as biochemical. Particulars: recombinant protein, 100 nM cortisol, 45 minutes at 37° C.; read-out: [C1] HSD2-prot Dehydro Score. As for the experimental part: The effects on the 11β-HSD2 dependent dehydrogenase activity was studied in a reaction mixture containing 0.1M sodium phosphate buffer pH 7.5, 300 μM NAD, 100 nM cortisol (of which 2 nM is 3H-radio labelled), 1 μl drug and/or solvent and 2.5 μg recombinant protein in a final volume of 100 μl.
as §1

Turning to `Cc1cccc(CC2CCN(C3C4CC5CC(C4)CC3C5)C2=O)c1F` (centres unmarked) [Compound 1], the melting point lay within 101 to 102 °C. Also, the pIC50 on 11β-HSD2 [1] was under 5.00. For the same compound, the pIC50 on 11β-HSD1 [2] is over 6.00. In addition, the pIC50 at 11β-HSD1 [3] is over 6.00.

`Cc1cccc(CC2(C)CCN(C3C4CC5CC(C4)CC3C5)C2=O)c1F` (centres unmarked) [Compound 2] registered a melting point of 120.5 to 122 °C. Moreover, the pIC50 at 11β-HSD2 [1] was under 5.00. At 11β-HSD1 [2], the pIC50 was over 6.00. Also, the pIC50 at 11β-HSD1 [3] was over 6.00.

On to `COc1cccc(CC2CCN(C3C4CC5CC(C4)CC3C5)C2=O)c1` (centres unmarked) [Compound 3], for which the pIC50 at 11β-HSD2 [1] was under 5.00; at 11β-HSD1 [2], over 6.00; on 11β-HSD1 [3], over 6.00.

In the case of `O=C1C(Cc2cccc(OC(F)(F)F)c2)CCN1C1C2CC3CC(C2)CC1C3` (centres unmarked) [Compound 4], at 11β-HSD1 [2], the pIC50 is over 6.00.

Consider `O=C1C(Cc2cccc(Br)c2)CCN1C1C2CC3CC(C2)CC1C3` (centres unmarked) [Compound 5], for which, on 11β-HSD1 [2], the pIC50 is over 6.00.

Regarding `N#Cc1cccc(CC2CCN(C3C4CC5CC(C4)CC3C5)C2=O)c1` (centres unmarked) [Compound 6], the pIC50 at 11β-HSD1 [2] is over 6.00.

Regarding `O=C1C(Cc2cccc(C(F)(F)F)c2F)CCN1C1C2CC3CC(C2)CC1C3` (centres unmarked) [Compound 7], the pIC50 at 11β-HSD1 [2] was over 6.00.

In the case of `COc1cc(CC2CCN(C3C4CC5CC(C4)CC3C5)C2=O)cc(OC)c1` (centres unmarked) [Compound 8], the results for the pIC50 at 11β-HSD2 [1], at 11β-HSD1 [2] and on 11β-HSD1 [3] were under 5.00, over 6.00 and over 6.00, respectively.

Turning to `O=C1C(Cc2cc(C(F)(F)F)cc(C(F)(F)F)c2)CCN1C1C2CC3CC(C2)CC1C3` (centres unmarked) [Compound 9], at 11β-HSD1 [2], the pIC50 was under 5.00.

As for `O=C1C(Cc2cc(F)cc(C(F)(F)F)c2)CCN1C1C2CC3CC(C2)CC1C3` (centres unmarked) [Compound 10], on 11β-HSD1 [2], the pIC50 was 5.00 to 6.00.

As for `Cc1cc(C)cc(CC2CCN(C3C4CC5CC(C4)CC3C5)C2=O)c1` (centres unmarked) [Compound 11], the pIC50 on 11β-HSD1 [2] is over 6.00.

With `Cc1cccc(C)c1CC1CCN(C2C3CC4CC(C3)CC2C4)C1=O` (centres unmarked) [Compound 12], the pIC50 on 11β-HSD1 [2] is under 5.00.

`O=C1C(Cc2ccc(Cl)cc2)CCN1C1C2CC3CC(C2)CC1C3` (centres unmarked) [Compound 13]: the results for the pIC50 on 11β-HSD2 [1], on 11β-HSD1 [2] and on 11β-HSD1 [3] were under 5.00, under 5.00 and over 6.00, respectively.

Take `O=C1C(Cc2ccc(F)cc2)CCN1C1C2CC3CC(C2)CC1C3` (centres unmarked) [Compound 14]: the pIC50 at 11β-HSD2 [1] is under 5.00; on 11β-HSD1 [2], over 6.00; at 11β-HSD1 [3], over 6.00.

On to `O=C1C(Cc2ccc(OC(F)(F)F)cc2)CCN1C1C2CC3CC(C2)CC1C3` (centres unmarked) [Compound 15], for which the pIC50 at 11β-HSD1 [2] was under 5.00.

On to `Cc1ccc(CC2CCN(C3C4CC5CC(C4)CC3C5)C2=O)cc1` (centres unmarked) [Compound 16], for which the pIC50 on 11β-HSD2 [1] was under 5.00; at 11β-HSD1 [2], over 6.00; at 11β-HSD1 [3], over 6.00.

Consider `CC1(Cc2ccc(OC(F)(F)F)cc2)CCN(C2C3CC4CC(C3)CC2C4)C1=O` (centres unmarked) [Compound 17], for which the pIC50 on 11β-HSD1 [2] was over 6.00.

On to `Cc1cccc(C)c1CC1(C)CCN(C2C3CC4CC(C3)CC2C4)C1=O` (centres unmarked) [Compound 18], for which, at 11β-HSD1 [2], the pIC50 was under 5.00.

In the case of `Cc1cc(C)cc(CC2(C)CCN(C3C4CC5CC(C4)CC3C5)C2=O)c1` (centres unmarked) [Compound 19], the pIC50 at 11β-HSD1 [2] was over 6.00.

Take `COc1cc(CC2(C)CCN(C3C4CC5CC(C4)CC3C5)C2=O)cc(OC)c1` (centres unmarked) [Compound 20]: the pIC50 at 11β-HSD1 [2] is over 6.00.

For the compound `COc1cccc(CC2CCCN(C3C4CC5CC(C4)CC3C5)C2=O)c1` (centres unmarked) [Compound 21], the pIC50 at 11β-HSD1 [2] was over 6.00.

As for `Cc1cccc(C)c1CC1CCCN(C2C3CC4CC(C3)CC2C4)C1=O` (centres unmarked) [Compound 22], on 11β-HSD1 [2], the pIC50 is under 5.00.

In the case of `O=C1C(Cc2ccc(OC(F)(F)F)cc2)CCCN1C1C2CC3CC(C2)CC1C3` (centres unmarked) [Compound 23], the pIC50 on 11β-HSD1 [2] is under 5.00.

In the case of `Cc1cc(C)cc(CC2CCCN(C3C4CC5CC(C4)CC3C5)C2=O)c1` (centres unmarked) [Compound 24], at 11β-HSD1 [2], the pIC50 was under 5.00.

Take `COc1cc(CC2CCCN(C3C4CC5CC(C4)CC3C5)C2=O)cc(OC)c1` (centres unmarked) [Compound 25]: the pIC50 on 11β-HSD1 [2] was over 6.00.

With `Cc1cccc(CC2CCCN(C3C4CC5CC(C4)CC3C5)C2=O)c1F` (centres unmarked) [Compound 26], the pIC50 at 11β-HSD1 [2] was over 6.00.

Take `COc1cccc(CC2(C)CCCN(C3C4CC5CC(C4)CC3C5)C2=O)c1` (centres unmarked) [Compound 27]: the pIC50 on 11β-HSD1 [2] is under 5.00.

On to `COc1cc(CC2(C)CCCN(C3C4CC5CC(C4)CC3C5)C2=O)cc(OC)c1` (centres unmarked) [Compound 28], for which the pIC50 on 11β-HSD1 [2] was under 5.00.

`COc1cccc(CC2(C)CCN(C3C4CC5CC(C4)CC3C5)C2=O)c1` (centres unmarked) [Compound 29]: the pIC50 is 5.00 to 6.00 on 11β-HSD2 [1], over 6.00 on 11β-HSD1 [2] and over 6.00 on 11β-HSD1 [3].

For the compound `CC1(Cc2ccc(F)cc2)CCN(C2C3CC4CC(C3)CC2C4)C1=O` (centres unmarked) [Compound 30], the pIC50 was under 5.00 at 11β-HSD2 [1], over 6.00 on 11β-HSD1 [2] and over 6.00 on 11β-HSD1 [3].

`COc1cccc(CC2(Cc3cccc(OC)c3)CCCN(C3C4CC5CC(C4)CC3C5)C2=O)c1` (centres unmarked) [Compound 31]: the pIC50 at 11β-HSD1 [2] is under 5.00.

Turning to `CC1(Cc2ccccc2)CCN(C2C3CC4CC(C3)CC2C4)C1=O` (centres unmarked) [Compound 32], the pIC50 on 11β-HSD1 [2] was over 6.00.

For `O=C1C(Cc2ccccc2)CCN1C1C2CC3CC(C2)CC1C3` (centres unmarked) [Compound 33], the pIC50 at 11β-HSD1 [2] was over 6.00.

Consider `O=C1N(C2C3CC4CC(C3)CC2C4)C2CCC1(c1ccccc1)CC2` (centres unmarked) [Compound 34], for which the pIC50 at 11β-HSD1 [2] is under 5.00.

Consider `CC1(c2ccccc2)CCN(C2C3CC4CC(C3)CC2C4)C1=O` (centres unmarked) [Compound 35], for which the pIC50 on 11β-HSD1 [2] was over 6.00.

Regarding `O=C1N(C2C3CC4CC(C3)CC2C4)C2CCC1(Cc1ccccc1)CC2` (centres unmarked) [Compound 36], the pIC50 at 11β-HSD1 [2] is over 6.00.

`O=C1C(Cc2ccccc2)CCN1[C@@H]1CC[C@]2(O)CC3CC2[C@H]1C3` (some centres unmarked) [Compound 37]: the pIC50 is under 5.00 at 11β-HSD2 [1] and over 6.00 on 11β-HSD1 [2].

`CC1(Cc2ccccc2)CCN([C@@H]2CC[C@]3(O)CC4CC3[C@H]2C4)C1=O` (some centres unmarked) [Compound 38]: the pIC50 at 11β-HSD1 [2] was over 6.00; at 11β-HSD2 [4], under 5.00.

As to `Cc1cccc(CC2CCN([C@@H]3CC[C@]4(O)CC5CC4[C@H]3C5)C2=O)c1F` (some centres unmarked) [Compound 39], the pIC50 was over 6.00 on 11β-HSD1 [2] and under 5.00 on 11β-HSD2 [4].

Regarding `Cc1cccc(CC2(C)CCN([C@@H]3CC[C@]4(O)CC5CC4[C@H]3C5)C2=O)c1F` (some centres unmarked) [Compound 40], the pIC50 on 11β-HSD2 [1] is 5.00 to 6.00; on 11β-HSD1 [2] it was over 6.00; on 11β-HSD2 [4], under 5.00.

In general, melting point refers to the temperature of the solid-liquid transition.
